Measured values reported in US7670967B2, “Dispersible alcohol/cleaning wipes via topical or wet-end application of acrylamide or vinylamide/amine polymers” (Kimberly-Clark Worldwide, Inc., priority 2004, dated 2010).

Assay: Solubility parameter (Hildebrand parameter) values for selected solvents and polyacrylamide
Details: solvent with polyacrylamide homopolymer, δ 21
Description: Determination of a suitable lower level alcohol, glycol, ketone, or mixtures thereof may be conducted using the solubility. The solubility of an amorphous polymer in a given solvent is governed by the Gibbs free energy of mixing given by Equation (1): ΔGm=ΔHm−TΔSm (1 ) ΔGm is the free energy change of the system upon mixing. ΔHm and ΔSm are the enthalpy and entropy change upon mixing, respectively, and T is the absolute temperature. When the free energy of mixing is less than zero (ΔGm<0) for a given polymer and solvent (or solvent mixture thereof), a single-phase system is obtained and mixing occurs spontaneously.
Solubility parameters, originally developed to describe enthalpy of mixing with simple nonpolar solvents, have been extended to describe the interactions of polymers and polar solvent. The enthalpy of mixing of such systems is expressed in a form like Equation (2):
[formula] […]
The units of δ may be difficult to rationalize. They are generally expressed as units of MPa½ or (cal/cm^3)^1/2. One simple way to understand these units is to note that Equation (4) calls for a solution in terms of a quantity of energy. It can be readily seen that substitution of δ values in terms of (cal/cm^3)^1/2 or MPa½ into Equation (4) results in a quantity of energy in terms of calories or joules, respectively, after unit cancellation (1 MPa=1 kJ/m^3). […]

| Compound | (δ1 − δ2)^2 PAM (cohesive energy difference parameter) |
| --- | --- |
| CC(C)=O [Acetone] | 123.2 |
| n-Propyl alcohol | 82.8 |
